The text below walks through data of PubChem BioAssay (NCI).

Each structure is given as a SMILES string.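 48-hour exposure; five concentrations; linearly interpolated endpoints. TGI: total growth inhibition.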 Where only a bound is given, the exact number is not on record here.

Holding throughout (test): growth of human tumour cells (NCI), 48 h
Assay [1] relates to SF-295 CNS.
Assay [2] concerns TK-10 renal.
Assay [3] deals with HL-60(TB) leukemia.
Assay [4] relates to IGROV1 ovarian.
Assay [5] relates to COLO 205 colon.
In assay [6] the test system is SF-268 CNS.
The test system of assay [7] is NCI-H460 lung.
Assay [8] has as its system BT-549 breast.
Assay [9] concerns NCI/ADR-RES ovarian.
The test system of assay [10] is SNB-78 CNS.
Assay [11] relates to M19-MEL melanoma.

As for `CN(C(=O)Cc1cc(Cl)c(Cl)cc1N=C=S)[C@H]1CCCC[C@@H]1N1CCCC1`, the TGI was 31.9 µM in assay [1]; 23.5 µM in assay [2]; 23.8 µM in assay [3]; 28.1 µM in [4]; 26.8 µM in assay [5]; 31.4 µM in assay [6]. Also, the TGI came out at 22 µM in [7], 29.5 µM in assay [8] and 36.9 µM in assay [9].

As to `COc1cc(OC)c(/C=C2\N=C(C)N(Nc3nnc(NN4C(=O)/C(=C/c5c(OC)cc(OC)cc5OC)N=C4C)c4ccccc34)C2=O)c(OC)c1`, the TGI in assay [1], in assay [3], in [4], in assay [5], in assay [6] and in assay [7] was greater than 100 µM in each case. Besides, the TGI in assay [10] and in [11] was greater than 100 µM each time.

Regarding `COc1ccc(NC(=O)/C(=N\NC(=O)C[n+]2ccccc2)c2c(O)c3ccc(O)cc3oc2=O)c([N+](=O)[O-])c1`, the TGI in [1], in assay [2], in assay [3], in assay [4], in assay [5] and in assay [6] was greater than 100 µM each time. For the same compound, the TGI in assay [7], in [8] and in assay [9] was greater than 100 µM in each case.

`O=C(NCc1cccnc1)NCc1cccnc1`: the TGI in [1], in assay [2], in assay [3], in assay [4], in assay [5] and in assay [6] was greater than 100 µM each time. The TGI in [7], in [8] and in [9] was greater than 100 µM throughout.

On to `COc1c2c(cc3oc(C)cc(=O)c13)OC(=N)C(C(N)=O)C2CC(=O)c1ccc(N)cc1` (configuration not stated), for which the TGI in [1], in assay [2], in [3], in assay [4], in [5] and in [6] was greater than 100 µM each time. Also, the TGI in [7], in assay [8] and in [9] was greater than 100 µM in each case.

On to `COc1ccc(NS(=O)CCCc2ccccc2)cc1` (configuration not stated), for which the TGI in assay [1], in assay [2], in assay [3], in assay [4], in assay [5] and in [6] was greater than 100 µM each time. Besides, the TGI in assay [7], in assay [8] and in assay [9] was greater than 100 µM throughout.

Regarding `CN(C)c1ccc(N=Nc2ccc3nc[nH]c3c2)cc1`, the TGI was 57.3 µM in assay [1]; 52.8 µM in [2]; greater than 100 µM in assay [3]; greater than 100 µM in [4]; 50.4 µM in assay [5]; 54 µM in assay [6]. Moreover, the TGI in [7] was 37.4 µM; in [8] it was greater than 100 µM; in assay [9] it was greater than 100 µM.

Regarding `Cn1c(/C=C(\O)c2ccc(Cl)cc2)nc2ccccc21`, the TGI was greater than 100 µM in assay [1]; 77.1 µM in [3]; greater than 100 µM in [4]; greater than 100 µM in assay [5]; greater than 100 µM in assay [6]; greater than 100 µM in assay [7]. The TGI in assay [10] and in assay [11] was greater than 100 µM in each case.

Regarding `CCO[C@]12C[C@H](OC)[C@@]3(O)CC(C1[C@H]3OCc1ccccc1)C13C4C2[C@H](OC)C1[C@](COC)(CN4CC)[C@H](O)C[C@@H]3OC` (some centres not stated), the TGI in assay [2], in assay [3], in assay [4], in [5], in assay [6] and in assay [7] was greater than 100 µM in each case. Further, the TGI in [10] and in assay [11] was greater than 100 µM in each case.

For `NC(N)=N/N=C/c1c(-c2ccccc2)nc2n1ccc1nc(-c3ccccc3)c(/C=N/N=C(N)N)n12`, the TGI in assay [1] was greater than 100 µM; in assay [2], greater than 100 µM; in [3], greater than 100 µM; in assay [4] it was 92.7 µM; in [5], greater than 100 µM; in assay [6], greater than 100 µM. Also, the TGI in assay [7], in [8] and in assay [9] was greater than 100 µM each time.

Regarding `Cc1ccc(N2C(=O)C3c4[nH]c5ccccc5c4C4CCC(C(C)(C)C)CC4C3C2=O)cc1` (configuration not stated), the TGI in assay [1] is 24.3 µM; in assay [2], 15.7 µM; in assay [3], greater than 74.9 µM; in [4] it was 25.2 µM; in [5], 22.5 µM; in assay [6], 18.9 µM. The TGI in [7] worked out at 17.2 µM; in assay [8] it was 39.3 µM; in [9] it was 31.8 µM.

As for `CC(=O)C1=CSC2[C@H](NC(=O)Cc3ccccc3)C(=O)N2C1C(=O)OC(c1ccccc1)c1ccccc1` (some centres not stated), the TGI in assay [1], in [2], in assay [3], in [4], in [5] and in assay [6] was greater than 100 µM each time. Moreover, the TGI in [10] and in [11] was greater than 100 µM each time.

As for `Cc1n[nH]c(=O)c2cc(-c3ccccc3)[nH]c12`, the TGI in assay [1] is greater than 100 µM; in assay [2], greater than 100 µM; in assay [3], greater than 100 µM; in [4], greater than 100 µM; in assay [5], 71 µM; in assay [6], greater than 100 µM. Besides, the TGI in assay [7], in [8] and in [9] was greater than 100 µM in each case.

For `CC1CCCc2c(C#N)c(N)nc(-c3ccc(Cl)cc3)c21` (configuration not stated), the TGI was 49.2 µM in assay [1]; greater than 100 µM in [2]; 83.3 µM in [3]; 56.8 µM in assay [4]; 67.7 µM in assay [5]; greater than 100 µM in assay [6]. Also, the figures for the TGI in assay [7], in [8] and in assay [9] were 59 µM, greater than 100 µM and greater than 100 µM, respectively.
